The test system of one test is TNFα. Put plainly: Cot Monocyte TNFα Cell Based Assay.
A further test deals with Human Cot (Homo sapiens (Human), UniProt P41279). Put plainly: High Throughput Cot Biochemical Assay.
The mark [1] stands for this setting: Homo sapiens, Monocyte, read-out: EC50 TNF, LPS-stimulated human monocytes, TNFα.
Where [2] appears, read: IC50 HTRF, Cot HTRF (TR-FRET) biochemical assay.
[3] abbreviates: Homo sapiens, Monocyte, read-out: EC50 TNF, LPS-stimulated human monocytes, TNFα TR-FRET.
Setting [4] is: IC50 HTRF, Cot HTRF (TR-FRET KinEASE) biochemical assay, 400 μM ATP.
[5] abbreviates: read-out: EC50 TNF, LPS-stimulated human monocytes, TNFα.
The mark [6] stands for this setting: read-out: IC50 HTRF, Cot HTRF (TR-FRET) biochemical assay.

Like-named read-outs stand apart in the source and are kept apart here.

Human Cot, sequence (P41279 30-397): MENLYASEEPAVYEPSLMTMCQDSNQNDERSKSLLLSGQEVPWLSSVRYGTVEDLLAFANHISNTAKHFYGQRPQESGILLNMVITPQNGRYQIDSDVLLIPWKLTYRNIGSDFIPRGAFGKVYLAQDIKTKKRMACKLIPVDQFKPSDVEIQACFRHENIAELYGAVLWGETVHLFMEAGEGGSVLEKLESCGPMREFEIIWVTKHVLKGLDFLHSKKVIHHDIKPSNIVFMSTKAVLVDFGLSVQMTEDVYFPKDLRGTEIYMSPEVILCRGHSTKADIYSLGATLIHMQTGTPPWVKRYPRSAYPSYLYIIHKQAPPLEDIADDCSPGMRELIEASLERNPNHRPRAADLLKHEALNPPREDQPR

Broadly, the EC50 is the concentration that produces a half-maximal response. One may read the IC50 as the concentration needed to halve the response being measured. `CN1Cc2c(cccc2[C@H](Nc2cc(Cl)c3ncc(C#N)c(NCC(C)(C)C)c3c2)c2cn(C3(C(F)F)CC3)nn2)C1=O` [Example 737, (S)-8-chloro-6-(((1-(1-(difluoromethyl)cyclopropyl)-1H-1,2,3-triazol-4-yl)(2-methyl-1-oxoisoindolin-4-yl)methyl)amino)-4-(neopentylamino)quinoline-3-carbonitrile]: in the test on TNFα (setting [1]), the 50% effective concentration (EC50) turned out to be 91 nM. Further, the IC50 on Human Cot (setting [2]) came out at 3 nM.

As for `CC(C)(C)CNc1c(C#N)cnc2c(Cl)cc(N[C@H](c3cn(C4(C#N)CC4)nn3)c3cccc4cnccc34)cc12` [Example 563, (S)-8-chloro-6-(((1-(1-cyanocyclopropyl)-1H-1,2,3-triazol-4-yl)(isoquinolin-5-yl)methyl)amino)-4-(neopentylamino)-quinoline-3-carbonitrile], in the test on TNFα (setting [1]), the concentration for a half-maximal effect (EC50) was determined as 63 nM. The molecule also showed an IC50 on Human Cot (setting [2]) of 2 nM.

On to `CC(C)(C)CNc1c(C#N)cnc2c(Cl)cc(N[C@H](c3cn(C4(C(F)(F)F)CC4)nn3)c3cncc4ccccc34)cc12` [Example 628, (S)-8-chloro-6-((isoquinolin-4-yl(1-(1-(trifluoromethyl)cyclopropyl)-1H-1,2,3-triazol-4-yl)methyl)amino)-4-(neopentylamino)quinoline-3-carbonitrile], for which, in the test on TNFα (setting [1]), the EC50 is 1000 nM. The same molecule yielded a concentration for half-maximal inhibition (IC50) against Human Cot (setting [2]) of 450 nM.

Consider `CC(C)n1cc([C@@H](Nc2cc(Cl)c3ncc(C#N)c(Nc4ccc(F)c(Cl)c4)c3c2)c2csc3c2CCNC3)nn1` [Example 346, (S)-8-chloro-4-((3-chloro-4-fluorophenyl)amino)-6-(((1-isopropyl-1H-1,2,3-triazol-4-yl)(4,5,6,7-tetrahydrothieno[2,3-c]pyridin-3-yl)methyl)amino)quinoline-3-carbonitrile], for which the 50% effective concentration (EC50) in the test on TNFα (setting [1]) was 208 nM. The IC50 on Human Cot (setting [2]) is 3 nM.

Regarding `[2H][C@](Nc1cc(C#N)c2ncc(C#N)c(N[C@H](CC)c3ccccc3)c2c1)(c1ccc(F)nc1)c1cn(C2CC2)nn1` [Example 117, 6-(((S)-(-cyclopropyl-1H-1,2,3-triazol-4-yl)(6-fluoropyridin-3-yl)methyl-d)amino)-4-(((R)-1-phenylpropyl)amino)quinoline-3,8-dicarbonitrile], the EC50 in the test on TNFα (setting [1]) was determined as 94 nM. Inhibition against Human Cot (setting [2]) was half-maximal at 3 nM (IC50).

With `Cc1nc(F)ccc1[C@H](Nc1cc(C#N)c2ncc(C#N)c(NCC(C)(C)C)c2c1)c1cn(C(C)(C)C2CC2)nn1` [Example 850, (S)-6-(((1-{2-cyclopropylpropan-2-yl)-1H-1,2,3-triazol-4-yl)(6-fluoro-2-methylpyridin-3-yl)methyl)amino)-4-(neopentylamino)quinoline-3,8-dicarbonitrile], the EC50 in the test on TNFα (setting [3]) is 65 nM. The same molecule came in with an IC50 against Human Cot (setting [4]) of 6 nM.

Take `CC(C)(C)CNc1c(C#N)cnc2c(Cl)cc(N[C@H](c3cn(C4CC4)nn3)c3cccc4[nH]ncc34)cc12` [Example 448, (S)-8-chloro-6-(((1-cyclopropyl-1H-1,2,3-triazol-4-yl)(1H-indazol-4-yl)methyl)-amino)-4-(neopentylamino)quinoline-3-carbonitrile]: the 50% effective concentration (EC50) with TNFα (setting [1]) worked out at 44 nM. Moreover, at Human Cot (setting [2]), the half-maximal inhibitory concentration (IC50) was 2 nM.

For the molecule `Cc1nc(F)ccc1[C@H](Nc1cc(C#N)c2ncc(C#N)c(NCC(C)(C)C(F)(F)F)c2c1)c1cn(C2(C)CC2)nn1` [Example 846, (S)-6-(((6-fluoro-2-methylpyridin-3-yl)(1-(1-methylcyclopropyl)-1H-1,2,3-triazol-4-yl)methyl)amino)-4-((3,3,3-trifluoro-2,2-dimethylpropyl)amino)quinoline-3,8-dicarbonitrile], the half-maximal effective concentration (EC50) in the test on TNFα (setting [3]) came to 17 nM. At Human Cot (setting [4]), this molecule showed an IC50 of 2 nM.

Regarding `COC[C@H](C)n1cc([C@@H](Nc2cc(Cl)c3ncc(C#N)c(NCC(C)(C)C)c3c2)c2cccc3c(=O)n(C)ccc23)nn1` [Example 802, 8-chloro-6-(((S)-(1-((S)-1-methoxypropan-2-yl)-1H-1,2,3-triazol-4-yl)(2-methyl-1-oxo-1,2-dihydroisoquinolin-5-yl)methyl)amino)-4-(neopentylamino)quinoline-3-carbonitrile], the EC50 in the test on TNFα (setting [3]) worked out at 36 nM. The molecule also yielded an IC50 against Human Cot (setting [4]) of 4 nM.

Take `Cc1scnc1[C@H](Nc1cc(C#N)c2ncc(C#N)c(NCC(C)(C)C)c2c1)c1cn(C2(C(F)F)CC2)nn1` [Example 641]: the 50% effective concentration (EC50) in the test with TNFα (setting [5]) turned out to be 811 nM. Moreover, the 50% inhibitory concentration (IC50) on Human Cot (setting [6]) is 55 nM.

As to `Cn1ccc2c([C@H](Nc3cc(C#N)c4ncc(C#N)c(NCC(C)(C)C(F)(F)F)c4c3)c3cn(C4(C)CC4)nn3)cccc2c1=O` [Example 884, (S)-6-(((2-methyl-1-oxo-1,2-dihydroisoquinolin-5-yl)(1-(1-methylcyclopropyl)-1H-1,2,3-triazol-4-yl)methyl)amino)-4-((3,3,3-trifluoro-2,2-dimethylpropyl)amino)q uin oline-3,8-dicarbonitrile], in the test with TNFα (setting [3]), the concentration for a half-maximal effect (EC50) amounted to 19 nM. At Human Cot (setting [4]), this molecule came in with a half-inhibitory concentration (IC50) of 1 nM.

As for `Cn1cnc([C@H](Nc2cc(Cl)c3ncc(C#N)c(Nc4ccc(F)c(Cl)c4)c3c2)c2cn(C3CCN(C(C)(C)C)CC3)nn2)c1` [Example 267, (S)-6-(((1-(1-(tert-butyl)piperidin-4-yl)-1H-1,2,3-triazol-4-yl)(1-methyl-1H-imidazol-4-yl)methyl)amino)-8-chloro-4-((3-chloro-4-fluorophenyl)-amino)quinoline-3-carbonitrile], the 50% effective concentration (EC50) in the test on TNFα (setting [1]) was determined as 5120 nM. At Human Cot (setting [2]), the half-inhibitory concentration (IC50) worked out at 30 nM.

For `Cc1ncsc1[C@H](Nc1cc(Cl)c2ncc(C#N)c(Nc3cccc(Cl)c3F)c2c1)c1c[nH]nn1` [Example 251, (R)-8-chloro-4-((3-chloro-2-fluorophenyl)amino)-6-(((4-methylthiazol-5-yl)(1H-1,2,3-triazol-4-yl)methyl)amino)quinoline-3-carbonitrile], the EC50 with TNFα (setting [1]) was determined as 347 nM. This molecule had an IC50 against Human Cot (setting [2]) of 5 nM.

With `CC(C)(C)CNc1c(C#N)cnc2c(C#N)cc(N[C@H](c3cn(C45CC(C4)C5)nn3)c3cccc4nc(C(F)F)ccc34)cc12` [Example 901, (S)-6-(((1-(bicyclo[1.1.1]pentan-1-yl)-1H-1,2,3-triazol-4-yl)(2-(difluoromethyl)quinolin-5-yl)methyl)amino)-4-(neopentylamino)quinoline-3,8-dicarbonitrile], the EC50 with TNFα (setting [3]) turned out to be 1000 nM. On Human Cot (setting [4]), this molecule yielded a concentration for half-maximal inhibition (IC50) of 484 nM.

On to `CC(C)(CNc1c(C#N)cnc2c(Cl)cc(N[C@H](c3cn(C4(C5CC5)CC4)nn3)c3cccc4ncccc34)cc12)C(F)(F)F` [Example 798, (S)-6-(((1-([1,1′-bi(cyclopropan)]-1-yl)-1H-1,2,3-triazol-4-yl)(quinolin-5-yl)methyl)amino)-8-chloro-4-((3,3,3-trifluoro-2,2-dimethylpropyl)amino)quinoline-3-carbonitrile], for which, in the test with TNFα (setting [1]), the EC50 is 90 nM. This molecule returned an IC50 at Human Cot (setting [2]) of 7 nM.

For `CC(C)n1cc([C@@H](Nc2cc(Cl)c3ncc(C#N)c(Nc4ccc(F)c(Cl)c4)c3c2)c2ccc3c(c2)CNCC3)nn1` [Example 50, (S)-8-chloro-4-((3-chloro-4-fluorophenyl)amino)-6-(((1-isopropyl-1H-1,2,3-triazol-4-yl)(1,2,3,4-tetrahydroisoquinolin-7-yl)methyl)amino)quinoline-3-carbonitrile], in the test with TNFα (setting [1]), the concentration giving a half-maximal response (EC50) was 3530 nM. The molecule also came in with an IC50 against Human Cot (setting [2]) of 70 nM.

On to `Cn1cnc2c([C@H](Nc3cc(Cl)c4ncc(C#N)c(NCC(C)(C)C)c4c3)c3cn(C45CC(C4)C5)nn3)cccc2c1=O` [Example 728, (S)-6-(((1-(bicyclo[1.1.1]pentan-1-yl)-1H-1,2,3-triazol-4-yl)(3-methyl-4-oxo-3,4-dihydroquinazolin-8-yl)methyl)amino)-8-chloro-4-(neopentylamino)quinoline-3-carbonitrile], for which the EC50 in the test with TNFα (setting [1]) was found to be 154 nM. The same molecule had a half-inhibitory concentration (IC50) against Human Cot (setting [2]) of 7 nM.

As to `CC(C)(C)N1CCC(n2cc([C@@H](Nc3cc(Cl)c4ncc(C#N)c(Nc5ccc(F)c(Cl)c5)c4c3)c3csc4ccc(Cl)cc34)nn2)CC1` [Example 349, (S)-6-(((1-(1-(tert-butyl)piperidin-4-yl)-1H-1,2,3-triazol-4-yl)(5-chlorobenzo[b]-thiophen-3-yl)methyl)amino)-8-chloro-4-((3-chloro-4-fluorophenyl)amino)quinoline-3-carbonitrile], the concentration giving a half-maximal response (EC50) in the test with TNFα (setting [1]) was determined as 718 nM. Besides, on Human Cot (setting [2]), the 50% inhibitory concentration (IC50) amounted to 41 nM.

As for `CC(C)n1ccc2c([C@H](Nc3cc(Cl)c4ncc(C#N)c(NCC(C)(C)C)c4c3)c3cn(C45CC(C4)C5)nn3)cccc2c1=O` [Example 772, (S)-6-(((1-(bicyclo[1.1.1]pentan-1-yl)-1H-1,2,3-triazol-4-yl)(2-isopropyl-1-oxo-1,2-dihydroisoquinolin-5-yl)methyl)amino)-8-chloro-4-(neopentylamino)quinoline-3-carbonitrile], the concentration giving a half-maximal response (EC50) with TNFα (setting [1]) came to 33 nM. Moreover, half-maximal inhibition on Human Cot (setting [2]) (IC50) was put at 2 nM.

Regarding `Cn1nnc2cccc([C@H](Nc3cc(Cl)c4ncc(C#N)c(NCC(C)(C)C)c4c3)c3cn(C4(C(F)F)CC4)nn3)c21` [Example 542, (S)-8-chloro-6-(((1-(1-(difluoromethyl)-cyclopropyl)-1H-1,2,3-triazol-4-yl)(1-methyl-1H-benzo[d][1,2,3]triazol-7-yl)methyl)amino)-4-(neopentylamino)-quinoline-3-carbonitrile], the concentration for a half-maximal effect (EC50) with TNFα (setting [1]) stood at 40 nM. The molecule further displayed an IC50 at Human Cot (setting [2]) of 2 nM.

On to `CC(C)(C)CNc1c(C#N)cnc2c(C#N)cc(N[C@H](c3cn(C4(C(F)F)CC4)nn3)c3cccc4ccncc34)cc12` [Example 552, (S)-6-(((1-(1-(difluoromethyl)cyclopropyl)-1H-1,2,3-triazol-4-yl)(isoquinolin-8-yl)methyl)-amino)-4-(neopentylamino)quinoline-3,8-dicarbonitrile], for which the concentration giving a half-maximal response (EC50) in the test on TNFα (setting [1]) stood at 26 nM. At Human Cot (setting [2]), it took 2 nM to reach half-maximal inhibition (IC50).

Turning to `CC(C)(C)CNc1c(C#N)cnc2c(C#N)cc(N[C@H](c3cn(C4(C(F)F)CC4)nn3)c3ccc(F)c4cnccc34)cc12` [Example 672], the EC50 in the test on TNFα (setting [5]) was 22 nM. In addition, the 50% inhibitory concentration (IC50) on Human Cot (setting [6]) was found to be 2 nM.

These data come from US11066414B2, “Cot modulators and methods of use thereof” (Gilead Sciences, Inc., priority 2015, dated 2021).
